Laboratory results published in ChEMBL document CHEMBL5543080, “5+1-Heterocyclization as preparative approach for carboxy-containing triazolo[1,5-c]quinazolines with anti-inflammatory activity” (2024).

Legend:
Format in all cases: functional
[1] = tested on: Rattus norvegicus; assay: Antiinflammatory activity in Wistar rat model of acute aseptic inflammation assessed as inhibition of carrageenan-induced exudative inflammation at 25 mg/kg, IG preadministered with compound for 1 hrs followed by carrageenan administration and measured after 3 hrs by water displacement plethysmometer relative to control; settings: po, time 4 hrs
[2] = tested on: Rattus norvegicus; assay: (§1) Antiinflammatory activity in carrageenan induced Wistar rat model of acute aseptic inflammation assessed as edema paw volume at 25 mg/kg, IG preadministered with compound for 1 hrs followed by carrageenan administration and measured after 3 hrs by water displacement plethysmometer (reference value: 2.23 +/- 0.13 ml); settings: time 4 hrs
[3] = tested on: Rattus norvegicus; assay: as §1, with “healthy” for “edema”, “1.38” for “2.23”, “0.06” for “0.13”; settings: time 4 hrs
[4] = tested on: Rattus norvegicus; assay: (§2) Antiinflammatory activity in Wistar rat model of acute aseptic inflammation assessed as reduction in paw edema by measuring nitrotyrosine level at 25 mg/kg, IG preadministered with compound for 1 hrs followed by carrageenan administration and measured after 3 hrs by ELISA (reference value: 16.45 +/- 3.748 nM/ml); settings: time 4 hrs
[5] = tested on: Rattus norvegicus; assay: as §2, with “IL-1beta” for “nitrotyrosine”, “3.250” for “16.45”, “0.778 pg/ml)” for “3.748 nM/ml)”; settings: time 4 hrs
[6] = tested on: Rattus norvegicus; assay: Antiinflammatory activity in Wistar rat model of acute aseptic inflammation assessed as increase in eNOS level at 25 mg/kg, IG preadministered with compound for 1 hrs followed by carrageenan administration and measured after 3 hrs by ELISA relative to control; settings: time 4 hrs
[7] = tested on: Rattus norvegicus; assay: as §2, with “eNOS” for “nitrotyrosine”, “8.150” for “16.45”, “6.576 pg/ml)” for “3.748 nM/ml)”; settings: time 4 hrs
[8] = tested on: Rattus norvegicus; assay: as §2, with “neutrophils” for “nitrotyrosine”, “hrs” for “hrs by ELISA”, “4.100” for “16.45”, “0.424 10^3/ml)” for “3.748 nM/ml)”; settings: time 4 hrs
[9] = tested on: Rattus norvegicus; assay: Antiinflammatory activity in Wistar rat model of acute aseptic inflammation assessed as decrease in nitrotyrosine level at 25 mg/kg, IG preadministered with compound for 1 hrs followed by carrageenan administration and measured after 3 hrs by ELISA relative to control; set-up: scale not given: the % may be the effect or the level left; settings: time 4 hrs
[10] = tested on: Rattus norvegicus; assay: as §2, with “COX-2” for “nitrotyrosine”, “15.00” for “16.45”, “4.243 ng/ml)” for “3.748 nM/ml)”; settings: time 4 hrs
[11] = tested on: Rattus norvegicus; assay: as §2, with “C-reactive protein” for “nitrotyrosine”, “10.64” for “16.45”, “1.223 ng/ml)” for “3.748 nM/ml)”; settings: time 4 hrs
[12] = tested on: Rattus norvegicus; assay: as §1, with “healthy” for “edema”, “1.20” for “2.23”, “0.06” for “0.13”; settings: time 4 hrs
[13] = tested on: Rattus norvegicus; assay: as §1, with “2.48” for “2.23”, “0.09” for “0.13”; settings: time 4 hrs

O=C(O)CCC12CCC(=O)N1c1ccccc1-c1nc(-c3ccccc3)nn12 (stereo not drawn) gave an inhibition in vivo at 25 mg/kg [1] of 0.94%, an Activity [2] of 2.25 mL and an Activity [3] of 1.41 mL.

In the case of O=C1CCC2(C(=O)O)N1c1ccccc1-c1nc(-c3ccccc3)nn12 (stereo not drawn), the inhibition in vivo at 25 mg/kg [1] is reported as 6.22%, the Activity [2] is reported as 2.19 mL and the Activity [3] is reported as 1.39 mL.

Work on O=C([O-])Cc1ccccc1Nc1c(Cl)cccc1Cl.[Na+] [DICLOFENAC SODIUM] yielded an Activity [4] of 17.6 nM/ml, an inhibition in vivo at 25 mg/kg [1] of 69.8% and an Activity [2] of 1.84 mL. The Activity [5] was 1.27 pg/mL, the Activity [6] was 18.07% and the Activity [7] was 8.43 pg/mL. For the same compound, the Activity [8] was 2.52 10^3/ml, the Activity [9] was 21.42% and the Activity [10] was 9.785 ng/mL. For the same compound, the Activity [3] was 1.55 mL and the Activity [11] was 4.245 ng/mL.

For CCOC(=O)CC1(C)Nc2ccccc2-c2nc(-c3ccc(OC)cc3)nn21 (stereo not drawn), the inhibition in vivo at 25 mg/kg [1] was 7.27%, the Activity [2] was 2.12 mL and the Activity [3] was 1.33 mL.

CCOC(=O)C1(C)Nc2ccccc2-c2nc(-c3ccccc3)nn21 (stereo not drawn) was tested, and the inhibition in vivo at 25 mg/kg [1] was 24.3%, the Activity [2] was 2.03 mL and the Activity [3] was 1.39 mL.

For CCOC(=O)c1nc2n(n1)C(c1ccc(C(=O)O)cc1)Nc1ccccc1-2 (stereo not drawn), the Activity [4] was 5.367 nM/ml, the Activity [12] was 1.45 mL and the inhibition in vivo at 25 mg/kg [1] was 52.7%. The Activity [5] was 0.253 pg/mL, the Activity [7] was 39.9 pg/mL and the Activity [8] was 1.667 10^3/ml. It also gave an Activity [10] of 3.033 ng/mL, an Activity [11] of 2.48 ng/mL and an Activity [13] of 2.05 mL.

Compound CCOC(=O)c1nc2n(n1)C(c1ccc(O)c(C(=O)O)c1)Nc1ccccc1-2 (stereo not drawn) has an Activity [4] of 5.6 nM/ml, an Activity [12] of 1.34 mL and an inhibition in vivo at 25 mg/kg [1] of 45.8%. The Activity [5] was 2.633 pg/mL, the Activity [7] was 35.23 pg/mL and the Activity [8] was 2.133 10^3/ml. It also gave an Activity [10] of 3.7 ng/mL, an Activity [11] of 3.183 ng/mL and an Activity [13] of 2.03 mL.

CCOC(=O)c1ccc(-c2nc3n(n2)C(c2ccc(C(=O)O)cc2)Nc2ccccc2-3)cc1 (stereo not drawn) gave an Activity [4] of 11.37 nM/ml, an Activity [12] of 1.38 mL and an inhibition in vivo at 25 mg/kg [1] of 21.9%. For the same compound, the Activity [5] was 0.87 pg/mL, the Activity [7] was 14.43 pg/mL and the Activity [8] was 2.533 10^3/ml. For the same compound, the Activity [10] was 4.367 ng/mL, the Activity [11] was 5.8 ng/mL and the Activity [13] was 2.37 mL.

O=C(O)C1Nc2ccccc2-c2nc(-c3ccccc3)nn21 (stereo not drawn) gave an inhibition in vivo at 25 mg/kg [1] of 12.2%, an Activity [2] of 2.03 mL and an Activity [3] of 1.28 mL.

Work on O=C1c2ccccc2C2N1c1ccccc1-c1nc(-c3ccccc3)nn12 (stereo not drawn) yielded an inhibition in vivo at 25 mg/kg [1] of 12.5%, an Activity [2] of 1.99 mL and an Activity [3] of 1.25 mL.

Compound CCOC(=O)c1ccc(-c2nc3n(n2)C2(C(=O)O)CCC(=O)N2c2ccccc2-3)cc1 (stereo not drawn) has an inhibition in vivo at 25 mg/kg [1] of 5.75%, an Activity [2] of 2.23 mL and an Activity [3] of 1.43 mL.

Work on O=C(O)c1ccc(C2Nc3ccccc3-c3nc(-c4ccccc4)nn32)cc1 (stereo not drawn) yielded an Activity [12] of 1.28 mL, an inhibition in vivo at 25 mg/kg [1] of 16.1% and an Activity [13] of 2.35 mL.

In the case of O=C(O)c1cc(C2Nc3ccccc3-c3nc(-c4ccccc4)nn32)ccc1O (stereo not drawn), the Activity [4] is reported as 10.67 nM/ml, the Activity [12] is reported as 1.28 mL and the inhibition in vivo at 25 mg/kg [1] is reported as 33.1%. For the same compound, the Activity [5] was 0.427 pg/mL, the Activity [6] was 77.06% and the Activity [7] was 25.97 pg/mL. For the same compound, the Activity [8] was 2.433 10^3/ml, the Activity [9] was 30.88% and the Activity [10] was 11.27 ng/mL. It also gave an Activity [11] of 5.267 ng/mL and an Activity [13] of 2.13 mL.

In the case of CCOC(=O)c1ccc(-c2nc3n(n2)C(c2ccc(C(=O)O)c(O)c2)Nc2ccccc2-3)cc1 (stereo not drawn), the Activity [12] is reported as 1.39 mL, the inhibition in vivo at 25 mg/kg [1] is reported as 18.3% and the Activity [13] is reported as 2.38 mL.

Compound CCOC(=O)c1nc2n(n1)C1(CCC(=O)O)CCC(=O)N1c1ccccc1-2 (stereo not drawn) has an inhibition in vivo at 25 mg/kg [1] of 12.2%, an Activity [2] of 2.03 mL and an Activity [3] of 1.28 mL.

CCOC(=O)c1ccc(-c2nc3n(n2)C(c2cccc(C(=O)O)c2)Nc2ccccc2-3)cc1 (stereo not drawn) was tested, and the Activity [4] was 6.433 nM/ml, the Activity [12] was 1.36 mL and the inhibition in vivo at 25 mg/kg [1] was 31%. For the same compound, the Activity [5] was 0.613 pg/mL, the Activity [7] was 28.03 pg/mL and the Activity [8] was 2.4 10^3/ml. The Activity [10] was 3.8 ng/mL, the Activity [11] was 4.233 ng/mL and the Activity [13] was 2.24 mL.
